Experimental data taken from PubChem BioAssay AID342 (DTP/NCI, 2004).
Several values for one entry are separate records, joined by “and”; a condition that tells them apart may be missing. Equal values may be shown once.

Tested on: Swiss mice, Sarcoma 180 sc, mean tumor weight T/C
Test: NCI In Vivo Anticancer Drug Screen. Data for tumor model Sarcoma 180 (subcutaneous) in Swiss mice
Conditions: endpoint: mean tumor weight, higher = larger tumour
In short: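 Mice bearing transplanted tumors were treated with compound, and survival or tumor size was measured. Values are expressed as the treated-group measurement (T) divided by the vehicle-treated control measurement (C).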

[1] = dose: 50.0 mg/kg/injection, schedule: Q01DX007 (ip), vehicle: carboxymethylcellulose (CMC)
[2] = dose: 100.0 mg/kg/injection, schedule: Q01DX007 (ip), vehicle: carboxymethylcellulose (CMC)

**Q.** Which T/C (dose: 222.0 mg/kg/injection, schedule: Q01DX007 (ip), vehicle: other) does the source give for `CC(=O)Nc1cc2c(cc1Br)-c1ccc(F)cc1C2` here?
**A.** The T/C was 56 % of control.

**Q.** And the T/C (dose: 333.0 mg/kg/injection, schedule: Q01DX007 (ip), vehicle: other)?
**A.** The T/C was 44 % of control.

**Q.** And the T/C (dose: 500.0 mg/kg/injection, schedule: Q01DX007 (ip), vehicle: other)?
**A.** The T/C was 22 % of control.

**Q.** For `CC1CN1P(=O)(N1CCCC1)N1CC1C` (stereo not given), which T/C (dose: 15.5 mg/kg/injection, schedule: Q#A X014 (ip), vehicle: saline) is on record?
**A.** The T/C was 27 % of control and 48 % of control.

**Q.** And the T/C (dose: 23.5 mg/kg/injection, schedule: Q#A X014 (ip), vehicle: saline)?
**A.** The T/C was 4 % of control.

**Q.** What about the T/C (dose: 31.0 mg/kg/injection, schedule: Q01DX007 (ip), vehicle: saline) of the same compound?
**A.** The T/C was 77 % of control.

**Q.** And the T/C (dose: 47.0 mg/kg/injection, schedule: Q01DX007 (ip), vehicle: saline)?
**A.** The T/C was 100 % of control.

**Q.** What about the T/C (dose: 70.0 mg/kg/injection, schedule: Q01DX007 (ip), vehicle: saline) of the same compound?
**A.** Its T/C is 50 % of control.

**Q.** `O=C(CCN1CC1)OCCOC(=O)CCN1CC1` was tested. Which T/C (dose: 4.0 mg/kg/injection, schedule: Q#A X014 (ip), vehicle: methylcellulose (MC)) did it give?
**A.** The T/C was 44 % of control.

**Q.** And the T/C (dose: 6.0 mg/kg/injection, schedule: Q#A X014 (ip), vehicle: methylcellulose (MC))?
**A.** Its T/C is 60 % of control.

**Q.** What about the T/C (dose: 9.0 mg/kg/injection, schedule: Q#A X014 (ip), vehicle: methylcellulose (MC)) of the same compound?
**A.** The T/C was 50 % of control.

**Q.** `OCC1OC(n2cnc3c(=S)nc[nH]c32)C(O)C1O` (stereo not given) was tested. Which T/C (dose: 10.7 mg/kg/injection, schedule: Q01DX007 (ip), vehicle: carboxymethylcellulose (CMC)) did it give?
**A.** The T/C was 51 % of control.

**Q.** What about the T/C (dose: 17.04 mg/kg/injection, schedule: Q01DX007 (ip), vehicle: carboxymethylcellulose (CMC)) of the same compound?
**A.** Its T/C is 61 % of control.

**Q.** And the T/C (dose: 20.0 mg/kg/injection, schedule: Q#A X014 (ip), vehicle: methylcellulose (MC))?
**A.** The T/C was 63 % of control.

**Q.** What about the T/C (dose: 21.3 mg/kg/injection, schedule: Q01DX007 (ip), vehicle: carboxymethylcellulose (CMC)) of the same compound?
**A.** The T/C was 40 % of control and 64 % of control.

**Q.** What about the T/C (dose: 28.4 mg/kg/injection, schedule: Q01DX007 (ip), vehicle: carboxymethylcellulose (CMC)) of the same compound?
**A.** The T/C was 48 % of control.

**Q.** What about the T/C (dose: 37.5 mg/kg/injection, schedule: Q#A X014 (ip), vehicle: methylcellulose (MC)) of the same compound?
**A.** Its T/C is 56 % of control.

**Q.** And the T/C (dose: 42.6 mg/kg/injection, schedule: Q01DX007 (ip), vehicle: carboxymethylcellulose (CMC))?
**A.** Its T/C is 42 % of control and 46 % of control.

**Q.** What about the T/C (dose: 62.0 mg/kg/injection, schedule: Q01DX007 (ip), vehicle: carboxymethylcellulose (CMC)) of the same compound?
**A.** The T/C was 44 % of control.

**Q.** And the T/C (dose: 75.0 mg/kg/injection, schedule: Q#A X014 (ip), vehicle: methylcellulose (MC))?
**A.** Its T/C is 22 % of control.

**Q.** What about the T/C (dose: 85.2 mg/kg/injection, schedule: Q01DX007 (ip), vehicle: carboxymethylcellulose (CMC)) of the same compound?
**A.** The T/C was 41 % of control and 44 % of control.

**Q.** And the T/C (dose: 100.0 mg/kg/injection, schedule: Q#A X014 (ip), vehicle: methylcellulose (MC))?
**A.** Its T/C is 20 % of control and 24 % of control.

**Q.** And the T/C (dose: 125.0 mg/kg/injection, schedule: Q01DX007 (ip), vehicle: carboxymethylcellulose (CMC))?
**A.** The T/C was 59 % of control.

**Q.** What about the T/C (dose: 250.0 mg/kg/injection, schedule: Q01DX007 (ip), vehicle: carboxymethylcellulose (CMC)) of the same compound?
**A.** Its T/C is 25 % of control.

**Q.** And the T/C (dose: 300.0 mg/kg/injection, schedule: Q01DX007 (ip), vehicle: carboxymethylcellulose (CMC))?
**A.** Its T/C is 21 % of control.

**Q.** And the T/C (dose: 400.0 mg/kg/injection, schedule: Q01DX007 (ip), vehicle: carboxymethylcellulose (CMC))?
**A.** Its T/C is 19 % of control.

**Q.** What about the T/C (dose: 450.0 mg/kg/injection, schedule: Q01DX007 (ip), vehicle: carboxymethylcellulose (CMC)) of the same compound?
**A.** The T/C was 11 % of control.

**Q.** What does the source list for `CCCCn1cnc2c(=S)nc[nH]c21`?
**A.** T/C (dose: 12.5 mg/kg/injection, schedule: Q01DX007 (ip), vehicle: carboxymethylcellulose (CMC)): 77 % of control; T/C (dose: 25.0 mg/kg/injection, schedule: Q01DX007 (ip), vehicle: carboxymethylcellulose (CMC)): 53 % of control; T/C [1]: 63 % of control; T/C [2]: 29 % of control

**Q.** `O=c1cccc2n1CC1CNC[C@H]2C1` was tested. Which T/C (dose: 0.78 mg/kg/injection, schedule: Q01DX007 (ip), vehicle: saline) did it give?
**A.** Its T/C is 92 % of control.

**Q.** And the T/C (dose: 1.56 mg/kg/injection, schedule: Q01DX007 (ip), vehicle: saline)?
**A.** The T/C was 97 % of control.

**Q.** What about the T/C (dose: 3.13 mg/kg/injection, schedule: Q01DX007 (ip), vehicle: saline) of the same compound?
**A.** The T/C was 62 % of control and 87 % of control.

**Q.** And the T/C (dose: 6.25 mg/kg/injection, schedule: Q01DX007 (ip), vehicle: saline)?
**A.** The T/C was 64 % of control.

**Q.** `CC(=O)N[C@H]1CC[C@H]2[C@@H]3CCC4=CC(=O)CC[C@]4(C)[C@H]3CC[C@]12C` was tested. Which T/C (dose: 5.0 mg/kg/injection, schedule: Q#A X014 (sc), vehicle: steriod suspending solution) did it give?
**A.** The T/C was 105 % of control.

**Q.** And the T/C (dose: 50.0 mg/kg/injection, schedule: Q#A X014 (sc), vehicle: steriod suspending solution)?
**A.** The T/C was 94 % of control.

**Q.** And the T/C (dose: 100.0 mg/kg/injection, schedule: Q#A X014 (sc), vehicle: steriod suspending solution)?
**A.** The T/C was 78 % of control.

**Q.** How did the T/C [1] turn out when `COc1ccc2c(c[n+](C)c3c4cc5c(cc4ccc23)OCO5)c1OC` was run?
**A.** Its T/C is 60 % of control.

**Q.** And the T/C [2]?
**A.** The T/C was 83 % of control.
